Laboratory results as given in US11053219B2, “Substituted pyridines as TYK2 inhibitors” (FronThera U.S. Pharmaceuticals LLC, priority 2018, dated 2021).

Columns and labels:
[1] = Pharmacokinetic study in Sprague Dawley rats; format: in vivo; settings: rat, plasma; for Vd: read-out: Vdss
Experimental: (§1) The pharmacokinetics of test compounds were evaluated in male C57BL/6 mice, Sprague Dawley rats, Beagle dogs, and cynomolgus monkeys when administered via oral gavage and IV injection. The animals were fasted overnight before administration. Plasma samples were collected predose and at 0.5, 1, 3, 6, 9, 12, and 24 hours postdose. The samples were analyzed by LC/MS/MS and the concentration of test compound at each timepoint was determined by linear regression. Pharmacokinetic parameters were calculated from the plasma concentrations using Pheonix WinNonlin.

[2] = molecular target: JAK1 (JH2 domain) (Homo sapiens (Human), UniProt P23458); experiment: JAK1 JH2 domain binding assay (KINOMEscan); settings: KINOMEscan; read-out: JAK1 (JH2 domain) binding Kd
Chain of JAK1 (JH2 domain) (P23458 583-855): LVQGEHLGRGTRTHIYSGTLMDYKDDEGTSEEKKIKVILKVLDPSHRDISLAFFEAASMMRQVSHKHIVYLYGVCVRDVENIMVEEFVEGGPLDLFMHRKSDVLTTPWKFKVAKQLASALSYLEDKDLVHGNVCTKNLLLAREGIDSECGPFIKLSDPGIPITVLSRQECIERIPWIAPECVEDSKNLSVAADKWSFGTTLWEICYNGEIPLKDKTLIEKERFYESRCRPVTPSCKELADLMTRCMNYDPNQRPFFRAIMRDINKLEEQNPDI
Experimental: (§6) The assay is performed by combining three components: DNA-tagged kinase; immobilized ligand; and a test compound. The ability of the test compound to compete with the immobilized ligand is measured via quantitative PCR of the DNA tag.
(§7) The liganded beads were blocked with excess biotin and washed with blocking buffer (SeaBlock (Pierce), 1% BSA, 0.05% Tween 20, 1 mM DTT) to remove unbound ligand and to reduce non-specific binding. […] Test compounds were prepared as 111× stocks in 100% DMSO. All test compounds were shipped to DiscoverX in DMSO with concentration of 10 mM. Kds were determined using an 11-point 3-fold compound dilution series with three DMSO control points. Each compound was tested in duplicate. […] The compounds were then diluted directly into the assays such that the final concentration of DMSO was 0.9%. All reactions performed in polypropylene 384-well plate. Each was a final volume of 0.02 ml. […] The kinase concentration in the eluates was measured by qPCR.
(§8) The amount of kinase measured by qPCR (Signal; y-axis) is plotted against the corresponding compound concentration in nM in log 10 scale (x-axis). Binding constants (Kds) were calculated with a standard dose-response curve using the Hill equation:
(§9) Similar to the method for TYK2 JH2 binding described above, JAK1 JH2 and JAK2 JH1 domain binding assay was performed using DiscoverX's KINOMEscan™, but with change of kinase domain.

[3] = system: INFα induced pSTAT5 in human PBMC; experiment: INFα induced pSTAT5 in human PBMC; format: cell-based; settings: human PBMC, INFα 5000 units/ml; read-out: p-STAT5 IC50
Experimental: Cells were seeded in a round bottom 96-well plate at the concentration of 200,000 cells/well. A 10-point dilution series of test compound (top dose 10 uM, 1:5 dilution) was added to the well using the liquid dispenser (Tecan D300e) and incubated for 1 hour at 37 C. Then human INFα recombinant protein (R&D Systems) was added to the well at the final concentration of 5000 units/ml and incubated for 15 minutes at 37 C. Cell lysates were prepared and analyzed by Phospho STAT3 (Tyr705) cellular kit (Cisbio) or Phospho STAT5 (Tyr693) Kit (Meso Scale Discovery) following manufacturer's protocol.
For calculation of the inhibition rate, the relative pSTAT signal of each well=pSTAT signal of each well−the average pSTAT signal of baseline. The inhibition %=(the average pSTAT signal of INFα treatment wells−the relative of pSTAT signal in each compound containing well)/the average pSTAT signal of INFα treatment wells*100%

[4] = system: GM-CSF-induced pSTAT5 in human PBMC; experiment: GM-CSF-induced pSTAT5 in human PBMC; format: cell-based; settings: GM-CSF 10 ng/ml
Experimental: (§2) Fresh Human PBMCs were resuspended in RPMI 1640 medium with 10% FBS. Cells were seeded in a round bottom 96-well plate at the concentration of 200,000 cells/well. A 10-point dilution series of test compound (top dose 10 uM, 1:5 dilution) was added to the well using the liquid dispenser (Tecan D300e) and incubated for 1 hour at 37 C. Then human IL-12 recombinant protein (R&D Systems) was added to the well at the final concentration of 10 ng/ml and incubated for 15 minutes at 37 C. Cell lysates were prepared and analyzed by Phospho STAT4 (Tyr693) Kit (Meso Scale Discovery) following manufacturer's protocol.
(§3) For calculation of the inhibition rate, the relative pSTAT4 signal of each well=pSTAT4 signal of each well−the average pSTAT4 signal of baseline. The inhibition %=(the average pSTAT4 signal of IL-12 treatment wells−the relative of pSTAT4 signal in each compound containing well)/the average pSTAT4 signal of IL-12 treatment wells*100%
(§4) The curve was plotted as the inhibition % (y-axis) vs. compounds concentration (x-axis) and was fitted with log(inhibitor) vs. normalized response—Variable slope by GraphPad Prism7.0. Control is BMS-986165:
(§5) Similar to the method for IL-12 induced pSTAT4 in human PBMC described above, these assays were performed to check if test compounds have cross-activity to JAK1. JAK2 and JAK3 pathways in human PBMC. The procedure is as described with change of stimuli to 10 ng/ml of GM-CSF or 20 ng/ml of IL-2.

[5] = Pharmacokinetic study in Beagle dogs; format: in vivo; settings: dog, plasma; for Vd: read-out: Vdss
Experimental: as §1

[6] = molecular target: TYK2 (JH2 domain) (Homo sapiens (Human), UniProt P29597); experiment: TYK2 JH2 domain binding assay (DiscoverX KINOMEscan); settings: 11-point 3-fold dilution, duplicate
Chain of TYK2 (JH2 domain) (P29597 589-875): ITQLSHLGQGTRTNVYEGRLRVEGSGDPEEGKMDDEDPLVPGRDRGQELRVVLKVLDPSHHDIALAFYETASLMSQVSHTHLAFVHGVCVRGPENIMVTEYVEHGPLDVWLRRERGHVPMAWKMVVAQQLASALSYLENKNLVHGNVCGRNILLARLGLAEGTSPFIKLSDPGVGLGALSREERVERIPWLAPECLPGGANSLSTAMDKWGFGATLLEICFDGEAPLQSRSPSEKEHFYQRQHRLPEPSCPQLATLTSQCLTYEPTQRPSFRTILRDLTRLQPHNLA
Experimental: as §6, §7, §8
The Hill Slope was set to −1.
Curves were fitted using anon-linear least square fit with the Levenberg-Marquardt algorithm.

[7] = Pharmacokinetic study in cynomolgus monkeys; format: in vivo; settings: cynomolgus monkey, plasma; for Vd: read-out: Vdss
Experimental: as §1

[8] = molecular target: JAK2 (JH1 domain) (Homo sapiens (Human), UniProt O60674); experiment: JAK2 JH1 domain binding assay (KINOMEscan)
Chain of JAK2 (JH1 domain) (O60674 849-1124): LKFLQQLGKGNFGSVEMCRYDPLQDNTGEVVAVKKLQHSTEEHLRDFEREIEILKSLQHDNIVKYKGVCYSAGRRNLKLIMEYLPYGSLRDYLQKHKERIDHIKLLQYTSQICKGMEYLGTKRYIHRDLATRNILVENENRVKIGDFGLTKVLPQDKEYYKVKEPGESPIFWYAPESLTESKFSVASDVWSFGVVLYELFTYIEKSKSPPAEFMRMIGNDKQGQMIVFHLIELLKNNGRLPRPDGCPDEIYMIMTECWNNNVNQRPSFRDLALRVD
Experimental: as §6, §7, §8, §9

[9] = Pharmacokinetic study in C57BL/6 mice; format: in vivo; set-up: AUC: unit not given here
Experimental: as §1

[10] = system: IL-2-induced pSTAT5 in human PBMC; experiment: IL-2-induced pSTAT5 in human PBMC; format: cell-based; settings: IL-2 20 ng/ml
Experimental: as §2, §3, §4, §5

[11] = Oral (5 mg/kg), read-out: C0 or Cmax (Cmax)
[12] = iv, I.V. (1 mg/kg), read-out: C0 or Cmax (C0)
[13] = Oral (2 mg/kg), read-out: C0 or Cmax (Cmax)
[14] = Oral (2 mg/kg), NA: no detectable
[15] = Oral (2 mg/kg), NA: no detectable, read-out: C0 or Cmax (Cmax)
[16] = male, mouse, plasma, Oral (10 mg/kg)
[17] = male, mouse, plasma, iv, I.V. (2 mg/kg)

## [2H]C([2H])([2H])CC(=O)c1cnc(NC(=O)C2CC2)cc1Nc1nccc(-c2ncn(C([2H])([2H])[2H])n2)c1OC [Example 200]
[1]; Oral (5 mg/kg)
  AUC: 3660 ± 684 ng·h/mL
  Tmax: 1 h
  bioavailability: 42.7 ± 8%
  half-life: 4.22 ± 3.6 h
[1]; [11]
  Cmax: 948 ± 43 ng/mL
[1]; iv, I.V. (1 mg/kg)
  AUC: 1710 ± 19 ng·h/mL
  clearance: 9.42 ± 0.022 mL/min/kg
  half-life: 1.58 ± 0.21 h
  Vd: 1.24 ± 0.065 L/kg
[1]; [12]
  Cmax: 1030 ± 47 ng/mL
[2]
  Kd: < 100 nM
[3]
  IC50: < 100 nM
[4]
  IC50: > 10000 nM
[5]; Oral (2 mg/kg)
  AUC: 2620 ± 258 ng·h/mL
  Tmax: 1.33 h
  bioavailability: 82.9 ± 8.2%
  half-life: 8.51 ± 1.6 h
[5]; [13]
  Cmax: 247 ± 17 ng/mL
[5]; iv, I.V. (0.5 mg/kg)
  AUC: 790 ± 196 ng·h/mL
  half-life: 11.5 ± 1.6 h
  Vd: 8.37 ± 1.39 L/kg
[5]; iv, I.V. (0.5 mg/kg), read-out: C0 or Cmax (C0)
  Cmax: 29.7 ± 14 ng/mL
[6]
  Kd: ≤ 1 nM
[7]; [14]
  AUC: 4060 ± 251 ng·h/mL
  Tmax: 2 h
  bioavailability: 27.7 ± 1.7%
  half-life: 8.6 ± 0.73 h
[7]; [15]
  Cmax: 384 ± 22 ng/mL
[7]; iv, I.V. (1 mg/kg)
  AUC: 7320 ± 202 ng·h/mL
  clearance: 1.87 ± 0.21 mL/min/kg
  half-life: 9.35 ± 1.57 h
  Vd: 1.45 ± 0.18 L/kg
[7]; [12]
  Cmax: 677 ± 81 ng/mL
[8]
  Kd: 1000 to 10000 nM
[9]; I.V. (2 mg/kg)
  AUC: 4475
[9]; Oral (10 mg/kg)
  AUC: 19295
[9]; [16]
  Tmax: 0.25 h
  bioavailability: 85.1%
  half-life: 2.01 h
[9]; male, mouse, plasma, Oral (10 mg/kg), read-out: C0 or Cmax (Cmax)
  Cmax: 4190 ng/mL
[9]; [17]
  clearance: 7.35 mL/min/kg
  half-life: 4.62 h
[9]; male, mouse, plasma, iv, I.V. (2 mg/kg), read-out: C0 or Cmax (C0)
  Cmax: 2390 ng/mL
[9]; male, mouse, plasma, iv, I.V. (2 mg/kg), read-out: Vdss
  Vd: 1.5 L/kg
[10]
  IC50: 1000 to 10000 nM

## [2H]C([2H])([2H])CC(=O)c1cnc(Nc2cccc(C#N)n2)cc1Nc1cccc(-c2ncn(C([2H])([2H])[2H])n2)c1OC [Example 198]
[1]; Oral (5 mg/kg)
  AUC: 1190 ± 53 ng·h/mL
  Tmax: 1 ± 0.87 h
  bioavailability: 16.9 ± 0.76%
  half-life: 2.85 ± 2.8 h
[1]; [11]
  Cmax: 261 ± 35 ng/mL
[1]; iv, I.V. (1 mg/kg)
  AUC: 1400 ± 29 ng·h/mL
  clearance: 11.8 ± 0.22 mL/min/kg
  half-life: 1.22 ± 0.12 h
  Vd: 1.1 ± 0.065 L/kg
[1]; [12]
  Cmax: 1200 ± 70 ng/mL
[2]
  Kd: < 100 nM
[3]
  IC50: < 100 nM
[4]
  IC50: 1000 to 10000 nM
[5]; Oral (2 mg/kg)
  AUC: 253 ± 48 ng·h/mL
  Tmax: 1.67 ± 0.58 h
  bioavailability: 54 ± 10%
  half-life: 1.42 ± 0.24 h
[5]; [13]
  Cmax: 68.8 ± 18 ng/mL
[5]; iv, I.V. (1 mg/kg)
  AUC: 234 ± 94 ng·h/mL
  clearance: 68.6 ± 28 mL/min/kg
  half-life: 4.29 ± 1.25 h
  Vd: 23.1 ± 4.59 L/kg
[5]; [12]
  Cmax: 182 ± 47.6 ng/mL
[6]
  Kd: ≤ 1 nM
[7]; [14]
  AUC: 1230 ± 435 ng·h/mL
  Tmax: 4 h
  bioavailability: 59.4 ± 21.1%
  half-life: 1.28 ± 0.18 h
[7]; [15]
  Cmax: 246 ± 124 ng/mL
[7]; iv, I.V. (1 mg/kg)
  AUC: 1030 ± 159 ng·h/mL
  clearance: 16.1 ± 2.4 mL/min/kg
  half-life: 1.45 ± 0.22 h
  Vd: 1.94 ± 0.03 L/kg
[7]; [12]
  Cmax: 667 ± 82 ng/mL
[8]
  Kd: > 10000 nM
[10]
  IC50: 100 to 1000 nM
